Assay results taken from ChEMBL document CHEMBL2010737, “Synthesis, modeling and functional activity of substituted styrene-amides as small-molecule CXCR7 agonists” (Eur J Med Chem, 2012).
Activity calls are given as the source filed them. The rule behind the calls is not given here.

Assays:
[1] = target: T1, Atypical chemokine receptor 3 (Homo sapiens, UniProt P25106); assay: Displacement of [125I]-CXCL12 from human CXCR7 expressed in HEK293 cells after 3 hrs; type: cell-based
[2] = target: T1, Atypical chemokine receptor 3; assay: Agonist activity at human CXCR7 expressed in HEK293T cells co-expressing beta-arrestin2-YFP assessed as beta-arrestin2 recruitment after 1 hr by BRET assay; type: functional, cell-based, HEK-293T; details: for Activity: HEK-293T
[3] = target: T1, Atypical chemokine receptor 3; assay: Agonist activity at human CXCR7 expressed in HEK293 cells assessed as reduction of receptor surface expression after 1 hr by ELISA based internalization assay; type: functional, cell-based
[4] = target: T1, Atypical chemokine receptor 3; assay: Agonist activity at human CXCR7 expressed in HEK293 cells assessed as reduction of receptor surface expression at 10^-5 M after 1 hr by ELISA based internalization assay; type: functional, cell-based

T1 sequence (P25106 whole entry): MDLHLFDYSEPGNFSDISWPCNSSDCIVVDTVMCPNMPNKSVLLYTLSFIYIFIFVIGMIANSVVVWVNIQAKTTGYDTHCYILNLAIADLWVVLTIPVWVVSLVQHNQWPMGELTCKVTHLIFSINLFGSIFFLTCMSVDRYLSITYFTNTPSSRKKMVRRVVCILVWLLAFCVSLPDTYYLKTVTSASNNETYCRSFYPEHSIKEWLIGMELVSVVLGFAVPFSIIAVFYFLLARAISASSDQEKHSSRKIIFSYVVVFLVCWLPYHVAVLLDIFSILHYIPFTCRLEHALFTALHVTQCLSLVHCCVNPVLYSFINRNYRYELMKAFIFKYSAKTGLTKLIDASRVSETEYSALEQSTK

Row | Ki [1] | also measured | SMILES
1 | 7.94 nM | EC50 [2]: 1.6 nM; Activity [2]: Dose-dependent effect; Activity [3]: Dose-dependent effect; EC50 [3]: 14.1 nM | COc1cc(C(=O)N(CCC2CCCN2C)C/C(C)=C/c2ccccc2F)cc(OC)c1OC (racemic)
2 | 794 nM |  | COc1ccc(C(=O)N(CCC2CCCN2C)C/C(C)=C/c2ccccc2)cc1C (racemic)
3 | 1260 nM |  | COc1ccc(/C=C(\C)CN(CCC2CCCN2C)C(=O)c2ccc(OC)c(OC)c2)c(F)c1 (racemic)
4 | 12.6 nM |  | COc1cc(C(=O)N(C/C=C(\C)c2ccccc2)CCC2CCCN2C)cc(OC)c1OC (racemic)
5 | 31.6 nM |  | COc1cc(C(=O)N(CCC2CCCN2C)C/C(C)=C/c2ccc(F)cc2F)cc(OC)c1OC (racemic)
6 | 100 nM |  | COc1ccc(C(=O)N(CCC2CCCN2C)C/C(C)=C/c2ccc(F)cc2F)cc1OC (racemic)
7 | 50.1 nM |  | COc1cc(C(=O)N(CCC2CCCN2C)C/C(C)=C/c2ccc(F)cc2)cc(OC)c1OC (racemic)
8 | 79.4 nM |  | COc1ccc(C(=O)N(CCC2CCCN2C)C/C(C)=C/c2ccc(F)cc2)cc1OC (racemic)
9 | 25.1 nM |  | COc1ccc(C(=O)N(CCC2CCCN2C)C/C(C)=C/c2ccccc2)cc1OC (racemic)
10 | 794 nM |  | C/C(=C\c1ccccc1)CN(CCC1CCCN1C)C(=O)c1ccc2c(c1)OCCO2 (racemic)
11 | 398 nM |  | COc1cc(C(=O)N(CCCN2CCOCC2)C/C(C)=C/c2ccccc2)cc(OC)c1OC
12 | 20 nM | EC50 [2]: 1 nM; Activity [2]: Dose-dependent effect; Activity [3]: Dose-dependent effect; EC50 [3]: 23.7 nM | COc1ccc(C(=O)N(CCC2CCCN2C)C/C(C)=C/c2ccccc2F)cc1OC (racemic)
13 | 79.4 nM |  | COc1cc(C(=O)N(CCC2CCCN2C)C/C(C)=C/c2cccc(F)c2)cc(OC)c1OC (racemic)
14 | 200 nM |  | COc1cc(C(=O)N(CCCN2CCCCC2C)C/C(C)=C/c2ccccc2)cc(OC)c1OC (racemic)
15 | 5010 nM | EC50 [2]: 1400 nM; Activity [4]: Active | COc1cc(C(=O)N(CCC2CCCN2C)C/C(C)=C/c2cc(F)cc(C(F)(F)F)c2)cc(OC)c1OC (racemic)
16 | 1260 nM |  | COc1ccc(/C=C(\C)CN(CCC2CCCN2C)C(=O)c2cc(OC)c(OC)c(OC)c2)c(F)c1 (racemic)
17 | 3160 nM |  | C/C(=C\c1ccc(F)cc1F)CN(CCC1CCCN1C)C(=O)c1ccc2c(c1)OCO2 (racemic)
18 | 100 nM |  | COc1ccc(C(=O)N(CCC2CCCN2C)C/C(C)=C/c2cccc(F)c2)cc1OC (racemic)
19 | 1260 nM |  | COc1ccc(C(=O)N(CCC2CCCN2C)C/C(C)=C/c2ccccc2)c(OC)c1 (racemic)
20 | 15.8 nM |  | COc1cc(C(=O)N(CCC2CCCN2C)C/C(C)=C/c2ccccc2)cc(OC)c1OC (racemic)
21 | 5010 nM |  | COc1ccc(C(=O)N(CCC2CCCN2C)C/C(C)=C/c2cc(F)cc(C(F)(F)F)c2)cc1OC (racemic)
22 | 1580 nM |  | COc1cc(C(=O)N(CCCO)C/C(C)=C/c2ccccc2)cc(OC)c1OC
23 | 794 nM |  | COc1cc(C(=O)N(C/C=C/c2ccccc2)CCC2CCCN2C)cc(OC)c1OC (racemic)
24 | 1580 nM |  | C/C(=C\c1ccc(F)cc1F)CN(CCC1CCCN1C)C(=O)c1ccc2c(c1)OCCO2 (racemic)
